Values joined by “and” are separate entries in the source; they are usually repeats but may differ in a detail not shown here. Equal entries are not always repeated. Inconclusive results are not listed.
Test system: MX-1 breast xenograft, intrarenal, nude mice, tumor weight
Assay: NCI In Vivo Anticancer Drug Screen. Data for tumor model Human Mammary Carcinoma MX-1 Xenograft (intrarenal inoculation) in NU/NU BALB/C (nude) mice
Settings: endpoint: mean tumor weight change, higher = larger tumour
How it was run: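 Antitumor activity is expressed as a T/C ratio. The treated group's tumor size or survival is compared against the vehicle-treated control group in mice bearing transplanted tumors.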

[1] = dose: 100.0 mg/kg/injection, schedule: Q04DX003 (ip), vehicle: saline with Tween-80
[2] = dose: 200.0 mg/kg/injection, schedule: Q04DX003 (ip), vehicle: saline with Tween-80
[3] = dose: 100.0 mg/kg/injection, schedule: Q04DX003 (ip), vehicle: Klucel (hydroxypropylcellulose) (HPC)
[4] = dose: 200.0 mg/kg/injection, schedule: Q04DX003 (ip), vehicle: Klucel (hydroxypropylcellulose) (HPC)

## COc1cc(C2CC(C)(O)Oc3cc4c(cc32)OCO4)cc(OC)c1OC (stereo not drawn)
dose: 25.0 mg/kg/injection, schedule: Q04DX003 (ip), vehicle: saline with Tween-80
  T/C: 86 % of control
dose: 50.0 mg/kg/injection, schedule: Q04DX003 (ip), vehicle: saline with Tween-80
  T/C: 75 % of control
[1]
  T/C: 73 % of control and 74 % of control
[2]
  T/C: 46 % of control

## CCN(CC)CCOCCO
dose: 600.0 mg/kg/injection, schedule: Q04DX003 (sc), vehicle: saline
  T/C: 121 % of control

## Nc1nc(Br)nc2c1ncn2C1CC(O)C(CO)O1 (stereo not drawn)
dose: 7.5 mg/kg/injection, schedule: Q03DX003 (ip), vehicle: saline
  T/C: 109 % of control
dose: 15.0 mg/kg/injection, schedule: Q03DX003 (ip), vehicle: saline
  T/C: 88 % of control
dose: 30.0 mg/kg/injection, schedule: Q03DX003 (ip), vehicle: saline
  T/C: 43 % of control
dose: 60.0 mg/kg/injection, schedule: Q03DX003 (ip), vehicle: saline
  T/C: 59 % of control
dose: 120.0 mg/kg/injection, schedule: Q03DX003 (ip), vehicle: saline
  T/C: 65 % of control

## CN(C)c1ccc2c(Nc3ccc(NS(C)(=O)=O)cc3)c3ccc(N(C)C)cc3nc2c1
[3]
  T/C: 115 % of control
[4]
  T/C: 39 % of control

## Oc1cccc2ccccc12
dose: 150.0 mg/kg/injection, schedule: Q04DX003 (ip), vehicle: water
  T/C: 81 % of control

## CN(C)[C@@H]1C(=O)C(C(N)=O)=C(O)[C@@]2(O)C(=O)C3=C(O)c4c(O)ccc(Cl)c4[C@@](C)(O)[C@H]3C[C@@H]12
dose: 300.0 mg/kg/injection, schedule: Q04DX003 (sc), vehicle: saline
  T/C: 155 % of control
dose: 1200.0 mg/kg/injection, schedule: Q04DX003 (sc), vehicle: saline
  T/C: 113 % of control
dose: 2400.0 mg/kg/injection, schedule: Q04DX003 (sc), vehicle: saline
  T/C: 70 % of control

## O=C(O)CC(=O)O.[NH-]C1CCCCC1[NH-].[Pt+2] (stereo not drawn)
dose: 10.0 mg/kg/injection, schedule: Q01DX010 (sc), vehicle: dextrose
  T/C: 93 % of control
dose: 20.0 mg/kg/injection, schedule: Q01DX010 (sc), vehicle: dextrose
  T/C: 92 % of control
dose: 30.0 mg/kg/injection, schedule: Q01DX010 (sc), vehicle: dextrose
  T/C: -84 % of control
dose: 40.0 mg/kg/injection, schedule: Q01DX010 (sc), vehicle: dextrose
  T/C: 83 % of control
dose: 60.0 mg/kg/injection, schedule: Q01DX010 (sc), vehicle: dextrose
  T/C: -86 % of control
dose: 80.0 mg/kg/injection, schedule: Q01DX010 (sc), vehicle: dextrose
  T/C: 74 % of control

## CN(C)CN1C(=O)S/C(=C2\C(=O)N(CN(C)C)c3ccccc32)C1=O
[3]
  T/C: 102 % of control
[4]
  T/C: 100 % of control
dose: 400.0 mg/kg/injection, schedule: Q04DX003 (ip), vehicle: Klucel (hydroxypropylcellulose) (HPC)
  T/C: 80 % of control

## CS(C)=O
dose: 750.0 mg/kg/injection, schedule: Q01DX010 (sc), vehicle: saline
  T/C: 122 % of control
dose: 3000.0 mg/kg/injection, schedule: Q01DX010 (sc), vehicle: saline
  T/C: 121 % of control

## COc1cccc2c1[C@H]1CO[C@H]3C4C[C@H](C(=O)O)C([C@@H](C2)N13)N4C (stereo partly drawn)
dose: 1.25 mg/kg/injection, schedule: Q04DX003 (ip), vehicle: other
  T/C: 50 % of control
dose: 2.5 mg/kg/injection, schedule: Q04DX003 (ip), vehicle: other
  T/C: 32 % of control and 33 % of control
dose: 5.0 mg/kg/injection, schedule: Q04DX003 (ip), vehicle: other
  T/C: 16 % of control and 19 % of control
dose: 7.5 mg/kg/injection, schedule: Q04DX003 (ip), vehicle: water
  T/C: 9 % of control
dose: 10.0 mg/kg/injection, schedule: Q04DX003 (ip), vehicle: other
  T/C: 8 % of control and 9 % of control
dose: 15.0 mg/kg/injection, schedule: Q04DX003 (ip), vehicle: water
  T/C: 2 % of control
dose: 20.0 mg/kg/injection, schedule: Q04DX003 (ip), vehicle: other
  T/C: 2 % of control
dose: 30.0 mg/kg/injection, schedule: Q04DX003 (ip), vehicle: water
  T/C: 2 % of control

## OC1OCC(COc2ccc(Cl)cc2)OC1O (stereo not drawn)
[1]
  T/C: 78 % of control
[2]
  T/C: 75 % of control
dose: 400.0 mg/kg/injection, schedule: Q04DX003 (ip), vehicle: saline with Tween-80
  T/C: 92 % of control

From PubChem BioAssay AID298 (DTP/NCI, 2004)
